Data as given in US9670204B2, “Compounds and pharmaceutical compositions thereof for the treatment of inflammatory disorders” (Galapagos NV, priority 2013, dated 2017).

Columns and labels:
LPA 18:2 in rat plasma = assay: Rat whole blood (plasma) LPA assay; type: biochemical; settings: 2 h at 37 C, LPA 18:2 by LC-MS/MS
Procedure: Whole blood is collected from rats or mouse by exsanguinations on sodium heparin tube, then after centrifugation at 3000 rpm for 15 min at 4° C., plasma is stored at −80° C. Compounds are diluted in DMSO in concentration dependent manner then 0.5 μL are dispensed into 96-well plate placed in ice. Plasma is defrosted on ice then 49.5 μL of plasma are added into the well containing 0.5 μL of compound (1% DMSO final). Plates are covered with a lid in polypropylene and incubated at +37° C., 5% CO2, for 2 h under gentle shaking (except controls which are stored at −20° C.).
At the end of the incubation, controls are defrosted in ice and transferred in the incubated plates for LC-MS/MS analysis with a non GLP-validated method. For the analysis, plasma proteins from a 10 μL incubated plates are precipitated with an excess of methanol containing the internal standard, LPA 17:0. After centrifugation, the corresponding supernatant is injected on a C18 column. Analytes are eluted out of the column under isocratic conditions. An API5500 QTRAP mass spectrometer (ABSciex™) is used for the detection of LPA 18:2. No calibration curve is prepared for LPA 18:2, however relative quantities are evaluated based on the peak area.

hENPP2 [1] = target: T1, hENPP2 (UniProtKB/SwissProt Q13822) (Homo sapiens (Human), UniProt Q13822); assay: hENPP2 biochemical assay, LPC as substrate; settings: LPC (palmitoyl 16:0) as substrate
How it was run: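 Human ENPP2 in 50 mM Tris-HCl pH 8.5, 500 mM NaCl, 5 mM KCl, 10 mM CaCl2, 0.1% fatty-acid-free BSA, reacted 30 min at 37 °C with LPC 16:0 (150 µM solution added 1:1). Released choline measured via choline oxidase/peroxidase/TOOS/4-aminoantipyrine quinoneimine dye at 555 nm; IC50 reported.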

hENPP2 [2] = target: T1, hENPP2; assay: fluorescent hENPP2 biochemical assay, FS-3 as substrate; settings: read-out: FS3-IC50
How it was run: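 hENPP2 in 50 mM Tris-HCl pH 8.0, 250 mM NaCl, 5 mM KCl, 1 mM MgCl2, 1 mM CaCl2, 0.1% fatty-acid-free BSA, preincubated with compound 30 min at room temperature. The 0.75 μM FS-3 solution was added and the mixture incubated 30 min at 30° C. Fluorescence (ex 485/em 520 nm) gives IC50.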

`CCc1nc2c(C)cc(N3CCN(CC(=O)N4CC(C)(O)C4)CC3)cn2c1N(C)c1nc(-c2ccc(F)cc2)c(C#N)s1` [Compound 3, 2-((2-ethyl-6-(4-(2-(3-hydroxy-3-methylazetidin-1-yl)-2-oxoethyl)piperazin-1-yl)-8-methylimidazo[1,2-a]pyridin-3-yl)(methyl)amino)-4-(4-fluorophenyl)thiazole-5-carbonitrile] gave an IC50 (LPA 18:2 in rat plasma) of 100 to 500 nM.
`CCc1nc2c(F)cc(N3CCN(CC(=O)N4CC[C@H](O)C4)CC3)cn2c1N(C)c1nc(-c2ccc(F)cc2)cs1` [Compound 15, (S)-2-(4-(2-ethyl-8-fluoro-3-((4-(4-fluorophenyl)thiazol-2-yl)(methyl)amino)imidazo[1,2-a]pyridin-6-yl)piperazin-1-yl)-1-(3-hydroxypyrrolidin-1-yl)ethanone] was tested, and the IC50 (LPA 18:2 in rat plasma) was 500 to 1000 nM.
Molecule `CCc1nc2cc(F)c(N3CCN(CC(=O)N4CC(O)C4)CC3)cn2c1N(C)c1nc(-c2ccc(F)cc2)c(C#N)s1` [Compound 18, 2-[(2-Ethyl-7-fluoro-6-{4-[2-(3-hydroxy-azetidin-1-yl)-2-oxo-ethyl]-piperazin-1-yl}-imidazo[1,2-a]pyridin-3-yl)-methyl-amino]-4-(4-fluoro-phenyl)-thiazole-5-carbonitrile] has an IC50 (LPA 18:2 in rat plasma) of 0.01 to 100 nM.
With `CCc1nc2c(C)cc(N3CCN(CC(=O)N4CC(O)C4)C(C)(C)C3)cn2c1N(C)c1nc(-c2ccc(F)cc2)c(C#N)s1` [Compound 6, 2-((2-ethyl-6-(4-(2-(3-hydroxyazetidin-1-yl)-2-oxoethyl)-3,3-dimethylpiperazin-1-yl)-8-methylimidazo[1,2-a]pyridin-3-yl)(methyl)amino)-4-(4-fluorophenyl)thiazole-5-carbonitrile] the IC50 (LPA 18:2 in rat plasma) was 100 to 500 nM.
Work on `CCc1nc2ccc(C3CCN(CC(=O)N(C)C)CC3)cn2c1N(C)c1nc(-c2ccc(F)cc2)c(CO)s1` [Compound 157, 2-(4-(2-ethyl-3-((4-(4-fluorophenyl)-5-(hydroxymethyl)thiazol-2-yl)(methyl)amino)imidazo[1,2-a]pyridin-6-yl)piperidin-1-yl)-N,N-dimethylacetamide] yielded an IC50 (hENPP2 [1]) of over 1000 nM and an IC50 (hENPP2 [2]) of 0.01 to 100 nM.
Molecule `CCc1nc2ccc(N3CCN(C(=O)CCCO)CC3)cn2c1N(C)c1nc(-c2ccc(F)cc2)cs1` [Compound 52, 1-(4-(2-ethyl-3-((4-(4-fluorophenyl)thiazol-2-yl)(methyl)amino)imidazo[1,2-a]pyridin-6-yl)piperazin-1-yl)-4-hydroxybutan-1-one] has an IC50 (hENPP2 [1]) of over 1000 nM and an IC50 (hENPP2 [2]) of 0.01 to 100 nM.
Molecule `CCc1nc2ccc(C3CCN(S(=O)(=O)CCCCl)CC3)cn2c1N(C)c1nc(-c2ccc(F)cc2)cs1` [Compound 86, N-(6-(1-(3-chloropropylsulfonyl)piperidin-4-yl)-2-ethylimidazo[1,2-a]pyridin-3-yl)-4-(4-fluorophenyl)-N-methylthiazol-2-amine] has an IC50 (hENPP2 [1]) of over 1000 nM and an IC50 (hENPP2 [2]) of 0.01 to 100 nM.
`CCc1nc2ccc(N3CCC(O)CC3)cn2c1N(C)c1nc(-c2ccc(F)cc2)cs1` [Compound 211, 1-(2-ethyl-3-((4-(4-fluorophenyl)thiazol-2-yl)(methyl)amino)imidazo[1,2-a]pyridin-6-yl)piperidin-4-ol] gave an IC50 (hENPP2 [1]) of over 1000 nM and an IC50 (hENPP2 [2]) of 0.01 to 100 nM.
`CCc1nc2ccc(N3CCN(CC(=O)NC)CC3)cn2c1N(C)c1nc(-c2ccc(F)cc2)c(C#N)s1` [Compound 22, 2-(4-(3-((5-cyano-4-(4-fluorophenyl)thiazol-2-yl)(methyl)amino)-2-ethylimidazo[1,2-a]pyridin-6-yl)piperazin-1-yl)-N-methylacetamide] was tested, and the IC50 (hENPP2 [1]) was 0.01 to 100 nM and the IC50 (hENPP2 [2]) was 0.01 to 100 nM.
Molecule `CCc1nc2ccc(C3CCN(CC(N)=O)CC3)cn2c1N(C)c1nc(-c2ccc(F)cc2)cs1` [Compound 125, 2-(4-(2-ethyl-3-((4-(4-fluorophenyl)thiazol-2-yl)(methyl)amino)imidazo[1,2-a]pyridin-6-yl)piperidin-1-yl)acetamide] has an IC50 (hENPP2 [1]) of over 1000 nM and an IC50 (hENPP2 [2]) of 0.01 to 100 nM.
With `CCc1nc2ccc(C3CCN(S(C)(=O)=O)CC3)cn2c1N(C)c1nc(-c2ccc(OC)cc2)cs1` [Compound 82, N-(2-ethyl-6-(1-(methylsulfonyl)piperidin-4-yl)imidazo [1,2-a]pyridin-3-yl)-4-(4-methoxyphenyl)-N-methylthiazol-2-amine] the IC50 (hENPP2 [1]) was over 1000 nM and the IC50 (hENPP2 [2]) was 0.01 to 100 nM.
In the case of `CCc1nc2ccc(N3CCN(C(=O)OC(C)(C)C)CC3)cn2c1N(C)c1nc(-c2ccc(F)cc2)cs1` [Compound 23, tert-butyl 4-(2-ethyl-3-((4-(4-fluorophenyl)thiazol-2-yl)(methyl)amino)imidazo[1,2-a]pyridin-6-yl)piperazine-1-carboxylate], the IC50 (hENPP2 [1]) is reported as over 1000 nM and the IC50 (hENPP2 [2]) is reported as 0.01 to 100 nM.
`CCc1nc2ccc(C3CCN(S(C)(=O)=O)CC3)cn2c1N(C)c1nc(-c2ccc(F)cc2)c(C(C)=O)s1` [Compound 105, 1-(2-((2-ethyl-6-(1-(methylsulfonyl)piperidin-4-yl)imidazo[1,2-a]pyridin-3-yl)(methyl)amino)-4-(4-fluorophenyl)thiazol-5-yl)ethanone] was tested, and the IC50 (hENPP2 [1]) was 100 to 500 nM and the IC50 (hENPP2 [2]) was 0.01 to 100 nM.
`CCc1nc2ccc(C3CCN(CC(=O)N(C)C)CC3)cn2c1N(C)c1nc(-c2ccc(F)cc2)ns1` [Compound 191, 2-(4-(2-ethyl-3-((3-(4-fluorophenyl)-1,2,4-thiadiazol-5-yl)(methyl)amino)imidazo[1,2-a]pyridin-6-yl)piperidin-1-yl)-N,N-dimethylacetamide] gave an IC50 (hENPP2 [1]) of over 1000 nM and an IC50 (hENPP2 [2]) of 0.01 to 100 nM.
`CCOC(=O)CN1CCC(c2ccc3nc(CC)c(N(C)c4nc(-c5ccc(F)cc5)cs4)n3c2)CC1` [Compound 109, ethyl 2-(4-(2-ethyl-3-((4-(4-fluorophenyl)thiazol-2-yl)(methyl)amino)imidazo[1,2-a]pyridin-6-yl)piperidin-1-yl)acetate] gave an IC50 (hENPP2 [1]) of 100 to 500 nM and an IC50 (hENPP2 [2]) of 0.01 to 100 nM.
With `CCc1nc2ccc(C3=NC(CO)CO3)cn2c1N(C)c1nc(-c2ccc(F)cc2)cs1` (stereo not drawn) [Compound 239, (2-(2-ethyl-3-((4-(4-fluorophenyl)thiazol-2-yl)(methyl)amino)imidazo[1,2-a]pyridin-6-yl)-4,5-dihydro-oxazol-4-yl)methanol] the IC50 (hENPP2 [1]) was over 1000 nM and the IC50 (hENPP2 [2]) was 0.01 to 100 nM.
Molecule `CCOC(=O)CN1CCN(c2ccc3nc(CC)c(N(C)c4nc(-c5ccc(F)cc5)cs4)n3c2)C(=O)C1` [Compound 64, ethyl 2-(4-(2-ethyl-3-((4-(4-fluorophenyl)thiazol-2-yl)(methyl)amino)imidazo[1,2-a]pyridin-6-yl)-3-oxopiperazin-1-yl)acetate] has an IC50 (hENPP2 [1]) of over 1000 nM and an IC50 (hENPP2 [2]) of 0.01 to 100 nM.
`CCc1nc2ccc(C3CCN(CC(=O)NC4CC4)CC3)cn2c1N(C)c1nc(-c2ccc(F)cc2)cs1` [Compound 194, N-cyclopropyl-2-(4-(2-ethyl-3-((4-(4-fluorophenyl)thiazol-2-yl)(methyl)amino)imidazo[1,2-a]pyridin-6-yl)piperidin-1-yl)acetamide] gave an IC50 (hENPP2 [1]) of over 1000 nM and an IC50 (hENPP2 [2]) of 0.01 to 100 nM.
Molecule `CCc1nc2ccc(C3CCN(C(=O)OC(C)(C)C)CC3O)cn2c1N(C)c1nc(-c2ccc(F)cc2)cs1` (stereo not drawn) [Compound 78, tert-butyl 4-(2-ethyl-3-((4-(4-fluorophenyl)thiazol-2-yl)(methyl)amino)imidazo[1,2-a]pyridin-6-yl)-3-hydroxypiperidine-1-carboxylate] has an IC50 (hENPP2 [1]) of over 1000 nM and an IC50 (hENPP2 [2]) of 0.01 to 100 nM.
Molecule `CCc1nc2ccc(C3CCN(S(=O)(=O)CCCOC(C)=O)CC3)cn2c1N(C)c1nc(-c2ccc(F)cc2)cs1` [Compound 93, 3-(4-(2-ethyl-3-((4-(4-fluorophenyl)thiazol-2-yl)(methyl)amino)imidazo[1,2-a]pyridin-6-yl)piperidin-1-ylsulfonyl)propyl acetate] has an IC50 (hENPP2 [1]) of 100 to 500 nM and an IC50 (hENPP2 [2]) of 0.01 to 100 nM.
